Measurements reported in US20060198882A1, “Stable liposomes or micelles comprising a sphinolipid and a peg-lipopolymer” (priority 2003, published 2006).
“And” between values parts separate entries of the source, which are not always exact repeats. Equal values may be shown once. Read-outs that look alike come from different tables or passages of the source.

Experiments:
C-26 cells = test: Apoptosis by chromatin morphology (Hoechst-33342, confocal microscopy); type: cell-based, human
Method: (§1) a) The morphology of chromatin was assessed by staining with Hoechst-33342 obtained from Calbiochem (La Jolla, Calif.), a molecule which when reside in the minor groove of the DNA strand enhance its fluorescence intensity and, therefore, it is preferentially stains dsDNA [Jouvet, P. Mol. Biol. Cell 11:1919-1932 (2000)]. Briefly, samples containing 5*10^5 cells were cultured on 6-well plates covered with a glass coverslip. After treatment of cells with IC50 of drugs, cells were washed with PBS and fixated with 4% formaldehyde. After that cells were stained with Hoechst-33342 (5 μg/ml) and washed. Thereafter, glass coverslip was placed on a glass slide and photographed using a CLMS.

OV-1063 cells = test: as above; type: cell-based, human; conditions: for Apoptotic OV-1063 cells (% of total cell number), 16 hr: IC50 concentrations
Method: as §1

[1] = Partition in the two phases of the Dole system; type: physicochemical; conditions: for % of lipid in heptane-rich upper phase / % of lipid in isopropanol/water lower phase: Dole two phase system
Method: The distribution of the C18 sphingosine-based ceramides with different acyl chain lengths and of DMS between the polar phase and respectively less polar phase (as defined below) of the Dole two phase system was determined. […] The different ceramides included: short (C2 Cer and C4 Cer), medium (C6 Cer and C8 Cer), long (C16 Cer). […] In: Liposome Technology 2nd Edn., G Gregoriadis (Ed.) CRC Press, Boca Raton, 1993, vol. 1, pp: 527-616]. The amount of each of the lipids used in each of the two phases was measured by thin-layer chromatography (TLC). For ceramide quantification TLC was developed in a solvent system containing chloroform/methanol (95:5 v/v). For DMS quantification TLC was developed in a solvent system containing chloroform/methanol/ammonia (89/9/2 v/v). Further, the TLC plate was sprayed with Copper sulfate reagent composed of 100 g anhydrous copper sulfate containing 80 ml of phosphoric acid (85%), %) dissolved in 600 ml of DDW. Copper sulphate reagent was applied to the plates by spraying, then heated and lipids appeared as dark brown spot. […] Quantity of ceramides in each phase was calculated from a standard curve of appropriate ceramide. […] (1993)Supra]. The distribution between the two Dole system phases was determined by the equation (as exemplified for ceramide): [formula] [formula] Where Kp denotes the partition coefficient of a given lipid or amphiphile referred to in the equation as lipid; Cer denotes ceramide; up is an abbreviation for the heptane rich low polarity upper phase and lp is an abbreviation for the polar isopropanol water rich lower phase.

OV-1063 = test: Methylene blue assay of cell survival; type: cell-based, human; conditions: Table 8B
Excerpt: (§2) Several tumor cell lines in monolayers were used. A human ovarian carcinoma cell line (OV-1063), established at the Hadassah University Hospital, a human colon carcinoma cell line (C-26), a DOX-sensitive M-109S ([…]), and a DOX-resistant, M-109R ([…]). All cell lines were maintained in RPMI-1640 medium supplemented with 10% FCS, antibiotics, and glutamine. All culture medium components were purchased from Biological Industries (Beit-HaEmek, Israel). Both cell lines were maintained at 37° C. in a water-jacketed CO2 incubator.
(§3) a) Various ceramides (Cer) with different chain lengths: short (C2 Cer and C4 Cer), medium (C6 Cer and C8 Cer), and long (C16 Cer) were first dissolved in 100% ethanol to a concentration of 30 mM, added to a serum-containing medium and mixed immediately. The final ethanol concentration in the serum-containing culture medium ranged from 0.1-0.5% (depending on the type of ceramide (Cer)).
(§4) b) Various ceramides with different chain lengths: short C2 Cer, medium C6 Cer, and long C16 Cer were dissolved in ethanol:dodecane (98:2 v/v) to a concentration of 30 mM and added to serum-free medium and mixed. Final concentrations of the ethanol and dodecane in the culture medium containing 10% of FCS ranged from 0.098-0.49% and 0.002-0.01%, respectively, depending on the type of ceramide.
(§5) The cytotoxicity of the examined assemblies comprising ceramide was tested by the methylene blue ([…]) staining assay [Gorodetsky, R. et al. Int. J. Cancer. 75:635-642 (1998)]. A known number of exponentially growing cells in 200 μL of medium were plated in 96-microwell, flat-bottomed plates. For each of the variants tested, 4 wells were used. Following 24 hr of incubation in culture, 20 μL of different concentrations of the examined assemblies were added to each well containing untreated cells.
(§6) The following controls were used: Citrate buffer (5 mM, pH 7); Ethanol solution in medium RPMI 1640 (final concentration of 0.1%); A solution RPMI 1640 of ethanol:dodecane (98:2 […]) at a final concentration of 0.1% and 0.2%, respectively.
(§7) Cells were exposed to assemblies for 4, 24, 72 or 96 hr. At the end of assembly exposure, for a fixed time interval, the drug-treated cells, as well as parallel control cells, were washed, and the incubation continued in fresh medium until termination of the experiment. Following 72 hr or 96 hr of growth, cells were fixed by adding 50 μL of 2.5% glutaraldehyde to each well for 15 min. Fixed cells were rinsed 10 times with deionized water and once with borate buffer (0.1 M, pH 8.5), dried, and stained with MB (100 μL of 1% solution in 0.1 M borate buffer, pH 8.5) for 1 h at room temperature (r.t.). Stained cells were rinsed thoroughly with de-ionized water to remove any non-cell-bound dye and then dried. The MB bound to the fixed cells was extracted by incubation at 37° C. with 200 μL of 0.1 N HCl for 1 h, and the net optical density of the dye in each well was determined by a plate spectrophotometer (Labsystems Multyskan Bichromatic, Finland) at 620 nm.

C-26 = test: Methylene blue assay of cell survival; type: cell-based, human
Excerpt: as §2, §3, §4, §5, §6, §7

[2] = Partition in the two phases of the Dole system; type: physicochemical
[3] = read-out: IC50 (μM), 4 hr OV-1063
[4] = read-out: IC50 (μM), 24 hr OV-1063
[5] = read-out: IC50 (μM), 72 hr OV-1063
[6] = Table 8A, C-26 cells, free ceramide dispersions, read-out: IC50 (μM), 4 hr
[7] = Table 8A, C-26 cells, read-out: IC50 (μM), 24 hr
[8] = Table 8A, C-26 cells, read-out: IC50 (μM), 72 hr
[9] = Table 8B, read-out: IC50 (μM), 4 hr C-26
[10] = Table 8B, read-out: IC50 (μM), 24 hr C-26
[11] = Table 8B, read-out: IC50 (μM), 72 hr C-26

SMILES | Apoptotic C-26 cells (% of total cell number), 16 hr (C-26 cells) | Apoptotic C-26 cells (% of total cell number), 24 hr (C-26 cells) | Apoptotic OV-1063 cells (% of total cell number), 24 hr (OV-1063 cells) | Apoptotic OV-1063 cells (% of total cell number), 16 hr (OV-1063 cells) | Kp (heptane rich/isopropanol and water rich partition coefficient) [1] | % of lipid in heptane-rich upper phase [1] | % of lipid in isopropanol/water lower phase [1] | IC50 (OV-1063; [3]) | IC50 (OV-1063; [4]) | IC50 (OV-1063; [5]) | IC50 (C-26; [6]) | IC50 (C-26; [7]) | IC50 (C-26; [8]) | IC50 (C-26; [9]) | IC50 (C-26; [10]) | IC50 (C-26; [11]) | Liposome formation (being a liposome forming lipid by itself) [2]
CCCCCCCCCCCCC/C=C/[C@@H](O)[C@H](CO)NC(=O)CCCCC [C6Cer, N-hexanoyl-D-erythro-sphingosine] | 9% | 18% | 61% | 53% | 3.17 | 63% and 62.7% | 37.3% | 8 ± 0.1 µM | 4.5 ± 0.7 µM | 2.3 ± 1 µM | 11 ± 5 µM | 4.1 ± 1.6 µM | 2.9 ± 1.2 µM | 11 ± 5 µM | 4.1 ± 1.6 µM | 2.9 ± 1.2 µM | No
CCCCCCCCCCCCC/C=C/[C@@H](O)[C@H](CO)NC(C)=O [C2Cer, N-Acetyl-D-erythro-sphingosine] | 7% | 14% | 60% | 48% | 0.54 | 21% and 21.2% | 79% and 78.8% | > 80 µM | > 30 µM | 25 ± 1.9 µM | > 60 µM | > 30 µM | 20 ± 1 µM | > 60 µM | > 30 µM | 20 ± 1 µM | No
CCCCCCCCCCCCC/C=C/[C@@H](O)[C@H](CO)NC(=O)CCCCCCCCCCCCCCC [C16Cer, N-palmitoyl-D-erythro-sphingosine] |  | 9% | 17% |  | 8.21 | 89% | 11% | > 100 µM | > 100 µM | 90 µM | > 100 µM | > 100 µM | 80 µM | > 100 µM | > 100 µM | 80 µM | No
